Patent US11208412B2 (DAEGU-GYEONGBUK MEDICAL INNOVATION FOUNDATION, priority 2017, dated 2021)

Legend:
Assay in all cases: Kinase selectivity, DiscoverX scanMAX Kinase assay panel (% control)
Assay type in all cases: binding
[1] = molecular target: T1, kinases of the scanMAX Kinase assay panel (Homo sapiens, UniProt P00519, H396P); details: 1 uM
T1 construct: purchased DiscoverX Co. (contract measurement) scanMAX Kinase assay panel
Method in brief: (§1)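 Percent of control computed as (compound − positive control)/(negative control − positive control) × 100, DMSO defining 100% and positive control 0%. Each panel kinase exposed to 1 uM compound; values under 35% taken to mean the compound acts on that kinase.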

[2] = molecular target: T2, kinases of the scanMAX Kinase assay panel (Homo sapiens, UniProt Q9H2K8); details: kinase TAOK3; 1 uM in DMSO
T2 construct: purchased DiscoverX Co. (contract measurement) scanMAX Kinase assay panel
T2 sequence (Q9H2K8 1-898): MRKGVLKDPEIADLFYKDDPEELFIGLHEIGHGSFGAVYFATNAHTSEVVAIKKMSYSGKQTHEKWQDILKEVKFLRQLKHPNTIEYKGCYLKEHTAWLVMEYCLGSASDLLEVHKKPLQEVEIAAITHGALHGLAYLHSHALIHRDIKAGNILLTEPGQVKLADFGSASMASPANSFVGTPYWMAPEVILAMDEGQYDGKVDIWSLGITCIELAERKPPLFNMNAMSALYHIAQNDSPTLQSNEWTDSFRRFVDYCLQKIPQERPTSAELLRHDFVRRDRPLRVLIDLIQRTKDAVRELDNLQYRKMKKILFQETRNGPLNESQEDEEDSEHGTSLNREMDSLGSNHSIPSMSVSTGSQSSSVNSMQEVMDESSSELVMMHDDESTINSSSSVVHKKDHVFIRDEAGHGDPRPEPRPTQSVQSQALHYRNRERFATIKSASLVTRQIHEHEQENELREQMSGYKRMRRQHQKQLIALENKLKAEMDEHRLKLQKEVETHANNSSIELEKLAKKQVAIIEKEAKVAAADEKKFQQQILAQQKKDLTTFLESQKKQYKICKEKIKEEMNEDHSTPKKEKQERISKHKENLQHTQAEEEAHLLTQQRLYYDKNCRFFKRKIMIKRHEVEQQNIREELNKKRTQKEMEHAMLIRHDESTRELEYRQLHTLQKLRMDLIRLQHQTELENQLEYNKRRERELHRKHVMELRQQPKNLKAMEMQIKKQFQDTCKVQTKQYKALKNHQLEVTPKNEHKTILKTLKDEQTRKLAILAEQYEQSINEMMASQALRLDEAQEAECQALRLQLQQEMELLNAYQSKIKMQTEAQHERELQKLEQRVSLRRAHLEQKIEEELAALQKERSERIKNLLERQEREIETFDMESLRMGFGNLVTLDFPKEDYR
Method in brief: as §1

[3] = molecular target: T3, kinases of the scanMAX Kinase assay panel (Homo sapiens, UniProt Q9P0L2); details: MARK1; 1 uM
T3 construct: purchased DiscoverX Co. (contract measurement) scanMAX Kinase assay panel
Method in brief: as §1

[4] = molecular target: T4, kinases of the scanMAX Kinase assay panel (Homo sapiens, UniProt O75460); details: ERN1; 1 uM
T4 construct: purchased DiscoverX Co. (contract measurement) scanMAX Kinase assay panel
Method in brief: as §1

[5] = molecular target: T5, kinases of the scanMAX Kinase assay panel (Homo sapiens, UniProt Q8WU08); details: kinase YANK1; 1 uM in DMSO
T5 construct: purchased DiscoverX Co. (contract measurement) scanMAX Kinase assay panel
Method in brief: as §1

[6] = molecular target: T6, kinases of the scanMAX Kinase assay panel (Homo sapiens, UniProt P07947); details: kinase YES; 1 uM in DMSO
T6 construct: purchased DiscoverX Co. (contract measurement) scanMAX Kinase assay panel
Method in brief: as §1

[7] = molecular target: T7, kinases of the scanMAX Kinase assay panel (Homo sapiens, UniProt Q8N4C8); details: MINK; 1 uM
T7 construct: purchased DiscoverX Co. (contract measurement) scanMAX Kinase assay panel
Method in brief: as §1

[8] = molecular target: T8, kinases of the scanMAX Kinase assay panel (Homo sapiens, UniProt Q86V86); details: PIM3; 1 uM
T8 construct: purchased DiscoverX Co. (contract measurement) scanMAX Kinase assay panel
Method in brief: as §1

[9] = molecular target: T9, kinases of the scanMAX Kinase assay panel (Homo sapiens, UniProt Q13233); details: MAP3K1; 1 uM
T9 construct: purchased DiscoverX Co. (contract measurement) scanMAX Kinase assay panel
Method in brief: as §1

[10] = molecular target: T10, kinases of the scanMAX Kinase assay panel (Homo sapiens, UniProt P35916); details: FLT4; 1 uM
T10 construct: purchased DiscoverX Co. (contract measurement) scanMAX Kinase assay panel
Method in brief: as §1

[11] = molecular target: T11, kinases of the scanMAX Kinase assay panel (Homo sapiens, UniProt O60285); details: ARK5; 1 uM
T11 construct: purchased DiscoverX Co. (contract measurement) scanMAX Kinase assay panel
T11 sequence (O60285 1-661): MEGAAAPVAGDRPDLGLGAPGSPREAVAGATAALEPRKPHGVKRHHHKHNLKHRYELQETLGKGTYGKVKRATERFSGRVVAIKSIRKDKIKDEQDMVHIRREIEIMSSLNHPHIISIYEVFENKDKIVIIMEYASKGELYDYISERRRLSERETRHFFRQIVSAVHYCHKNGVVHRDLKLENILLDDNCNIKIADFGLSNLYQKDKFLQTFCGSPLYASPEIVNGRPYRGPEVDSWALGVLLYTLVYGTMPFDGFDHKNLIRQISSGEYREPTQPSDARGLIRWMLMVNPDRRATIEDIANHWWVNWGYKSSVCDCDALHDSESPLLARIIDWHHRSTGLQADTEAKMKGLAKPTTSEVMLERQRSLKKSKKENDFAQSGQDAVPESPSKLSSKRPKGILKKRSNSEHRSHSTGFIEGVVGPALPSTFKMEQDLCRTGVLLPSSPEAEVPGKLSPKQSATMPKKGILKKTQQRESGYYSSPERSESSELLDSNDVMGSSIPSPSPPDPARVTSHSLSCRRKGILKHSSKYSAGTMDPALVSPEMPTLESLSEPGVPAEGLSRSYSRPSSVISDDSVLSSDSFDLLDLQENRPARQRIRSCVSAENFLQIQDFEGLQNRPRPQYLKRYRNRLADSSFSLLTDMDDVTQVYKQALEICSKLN
Method in brief: as §1

T6 sequence (P07947 whole entry): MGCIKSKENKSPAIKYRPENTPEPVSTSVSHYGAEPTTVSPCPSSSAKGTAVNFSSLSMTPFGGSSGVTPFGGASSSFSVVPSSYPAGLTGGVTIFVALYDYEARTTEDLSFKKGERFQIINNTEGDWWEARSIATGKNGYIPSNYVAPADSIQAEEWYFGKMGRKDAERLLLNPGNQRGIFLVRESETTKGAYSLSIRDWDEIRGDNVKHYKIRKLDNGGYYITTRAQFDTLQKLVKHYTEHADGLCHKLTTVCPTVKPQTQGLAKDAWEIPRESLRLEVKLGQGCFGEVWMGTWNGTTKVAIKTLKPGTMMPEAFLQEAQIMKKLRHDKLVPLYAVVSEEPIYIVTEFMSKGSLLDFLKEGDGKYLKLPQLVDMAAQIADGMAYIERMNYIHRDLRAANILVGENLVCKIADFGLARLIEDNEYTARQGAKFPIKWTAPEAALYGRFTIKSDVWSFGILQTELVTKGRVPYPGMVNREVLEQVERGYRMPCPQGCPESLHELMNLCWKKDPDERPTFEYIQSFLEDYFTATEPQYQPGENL
T3 sequence (Q9P0L2 whole entry): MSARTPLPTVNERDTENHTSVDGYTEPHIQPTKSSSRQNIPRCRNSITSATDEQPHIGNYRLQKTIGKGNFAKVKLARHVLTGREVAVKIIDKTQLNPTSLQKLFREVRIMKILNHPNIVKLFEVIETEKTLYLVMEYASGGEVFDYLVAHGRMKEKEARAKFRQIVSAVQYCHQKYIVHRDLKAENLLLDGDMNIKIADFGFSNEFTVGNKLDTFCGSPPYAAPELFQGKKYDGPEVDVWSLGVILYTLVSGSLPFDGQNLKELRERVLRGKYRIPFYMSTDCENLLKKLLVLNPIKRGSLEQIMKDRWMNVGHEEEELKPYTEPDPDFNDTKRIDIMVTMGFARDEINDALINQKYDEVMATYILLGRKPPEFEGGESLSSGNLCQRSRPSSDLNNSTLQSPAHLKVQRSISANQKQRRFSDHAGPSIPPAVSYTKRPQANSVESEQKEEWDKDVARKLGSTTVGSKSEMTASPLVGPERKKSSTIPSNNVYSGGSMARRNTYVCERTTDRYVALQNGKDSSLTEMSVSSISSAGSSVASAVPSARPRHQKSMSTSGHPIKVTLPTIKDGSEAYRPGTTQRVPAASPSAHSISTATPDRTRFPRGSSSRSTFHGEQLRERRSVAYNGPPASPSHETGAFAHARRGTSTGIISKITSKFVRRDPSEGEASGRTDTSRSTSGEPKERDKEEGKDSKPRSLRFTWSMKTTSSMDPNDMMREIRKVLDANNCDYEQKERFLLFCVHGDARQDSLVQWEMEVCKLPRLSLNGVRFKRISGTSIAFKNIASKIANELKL
T9 sequence (Q13233 whole entry): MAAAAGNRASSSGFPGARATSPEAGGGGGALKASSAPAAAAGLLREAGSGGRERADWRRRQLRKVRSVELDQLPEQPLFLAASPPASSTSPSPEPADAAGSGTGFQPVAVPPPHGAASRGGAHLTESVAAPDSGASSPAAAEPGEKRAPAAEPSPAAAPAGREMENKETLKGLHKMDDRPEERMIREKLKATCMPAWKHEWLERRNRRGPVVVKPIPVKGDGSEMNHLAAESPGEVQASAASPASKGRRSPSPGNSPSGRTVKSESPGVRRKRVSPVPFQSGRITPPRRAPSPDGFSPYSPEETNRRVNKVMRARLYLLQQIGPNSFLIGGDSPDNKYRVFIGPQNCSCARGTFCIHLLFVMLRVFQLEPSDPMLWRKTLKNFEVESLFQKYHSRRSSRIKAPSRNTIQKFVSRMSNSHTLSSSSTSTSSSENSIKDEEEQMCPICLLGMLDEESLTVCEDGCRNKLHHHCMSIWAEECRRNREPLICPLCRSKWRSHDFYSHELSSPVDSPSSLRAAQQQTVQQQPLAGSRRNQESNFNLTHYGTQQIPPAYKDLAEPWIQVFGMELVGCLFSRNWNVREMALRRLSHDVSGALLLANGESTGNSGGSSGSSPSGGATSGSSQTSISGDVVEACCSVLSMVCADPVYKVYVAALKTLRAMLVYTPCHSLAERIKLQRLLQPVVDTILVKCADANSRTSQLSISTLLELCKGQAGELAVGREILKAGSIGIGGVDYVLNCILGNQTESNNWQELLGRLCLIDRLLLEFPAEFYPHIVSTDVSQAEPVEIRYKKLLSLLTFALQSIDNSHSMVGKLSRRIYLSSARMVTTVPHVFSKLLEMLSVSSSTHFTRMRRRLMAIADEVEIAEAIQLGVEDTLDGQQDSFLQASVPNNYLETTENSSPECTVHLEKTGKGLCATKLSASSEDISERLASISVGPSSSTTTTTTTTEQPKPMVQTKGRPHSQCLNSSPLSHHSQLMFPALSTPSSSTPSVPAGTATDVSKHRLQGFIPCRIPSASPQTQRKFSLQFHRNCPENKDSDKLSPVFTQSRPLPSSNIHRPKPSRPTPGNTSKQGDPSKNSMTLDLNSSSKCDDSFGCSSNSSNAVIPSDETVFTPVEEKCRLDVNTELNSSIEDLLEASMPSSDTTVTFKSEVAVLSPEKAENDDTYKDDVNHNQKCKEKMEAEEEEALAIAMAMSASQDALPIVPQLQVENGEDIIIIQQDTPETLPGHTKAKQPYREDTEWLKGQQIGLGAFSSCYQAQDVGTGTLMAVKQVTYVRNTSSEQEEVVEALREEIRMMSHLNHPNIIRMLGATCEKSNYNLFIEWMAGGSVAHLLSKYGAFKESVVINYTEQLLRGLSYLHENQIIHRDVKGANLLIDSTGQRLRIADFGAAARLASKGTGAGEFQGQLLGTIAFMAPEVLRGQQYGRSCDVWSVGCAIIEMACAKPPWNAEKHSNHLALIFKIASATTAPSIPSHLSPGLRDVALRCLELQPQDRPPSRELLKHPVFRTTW
T5 sequence (Q8WU08 whole entry): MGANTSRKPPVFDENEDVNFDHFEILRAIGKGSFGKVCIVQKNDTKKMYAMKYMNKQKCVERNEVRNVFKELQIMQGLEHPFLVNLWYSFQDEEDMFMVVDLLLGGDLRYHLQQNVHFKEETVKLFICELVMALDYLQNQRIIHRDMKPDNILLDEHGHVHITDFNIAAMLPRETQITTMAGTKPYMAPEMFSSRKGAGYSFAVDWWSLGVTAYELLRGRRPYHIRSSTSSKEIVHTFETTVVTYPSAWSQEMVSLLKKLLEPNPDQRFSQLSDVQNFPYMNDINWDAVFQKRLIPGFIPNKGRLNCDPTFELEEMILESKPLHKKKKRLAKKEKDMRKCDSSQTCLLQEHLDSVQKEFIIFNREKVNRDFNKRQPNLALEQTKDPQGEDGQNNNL
T4 sequence (O75460 19-977): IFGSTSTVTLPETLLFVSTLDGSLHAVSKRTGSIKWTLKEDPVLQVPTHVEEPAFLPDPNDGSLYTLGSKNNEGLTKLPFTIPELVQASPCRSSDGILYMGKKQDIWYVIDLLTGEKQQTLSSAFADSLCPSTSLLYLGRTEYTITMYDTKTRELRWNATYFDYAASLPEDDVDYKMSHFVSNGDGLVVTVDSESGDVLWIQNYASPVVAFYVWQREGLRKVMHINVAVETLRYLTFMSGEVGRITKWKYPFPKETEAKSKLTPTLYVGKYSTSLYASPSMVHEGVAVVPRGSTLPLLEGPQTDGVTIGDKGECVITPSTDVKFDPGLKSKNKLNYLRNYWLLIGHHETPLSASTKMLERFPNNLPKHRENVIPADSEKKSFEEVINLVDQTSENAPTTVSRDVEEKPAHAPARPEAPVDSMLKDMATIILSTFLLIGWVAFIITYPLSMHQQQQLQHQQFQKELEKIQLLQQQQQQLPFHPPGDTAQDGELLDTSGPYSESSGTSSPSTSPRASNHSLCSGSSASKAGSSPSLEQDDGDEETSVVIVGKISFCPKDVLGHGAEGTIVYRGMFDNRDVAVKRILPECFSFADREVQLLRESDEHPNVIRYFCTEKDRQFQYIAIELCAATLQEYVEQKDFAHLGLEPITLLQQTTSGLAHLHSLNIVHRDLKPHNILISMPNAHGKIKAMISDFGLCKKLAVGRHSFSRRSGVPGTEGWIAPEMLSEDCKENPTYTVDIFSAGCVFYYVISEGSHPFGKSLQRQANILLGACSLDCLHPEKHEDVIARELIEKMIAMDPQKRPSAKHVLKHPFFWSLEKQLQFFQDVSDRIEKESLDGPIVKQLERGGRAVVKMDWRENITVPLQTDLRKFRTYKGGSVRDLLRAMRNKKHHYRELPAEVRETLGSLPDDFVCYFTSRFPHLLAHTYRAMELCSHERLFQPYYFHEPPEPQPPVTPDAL

Work on `CNc1nc(Nc2ccc(C(=O)N3CCOCC3)cc2OC)nc2[nH]cc(C#N)c12` [Example 1, 2-((2-methoxy-4-(morpholine-4-carbonyl)phenyl)amino)-4-(methylamino)-7H-pyrrolo[2,3-d]pyrimidine-5-carbonitrile] yielded a remaining binding at 1 µM ([1]; ABL1(H396P)-nonphosphorylated) of 81%, a remaining binding at 1 µM ([1]; ABL1(H396P)-phosphorylated) of 94% and a remaining binding at 1 µM [2] of 81%. The remaining binding at 1 µM [3] was 91%, the remaining binding at 1 µM [4] was 57% and the remaining binding at 1 µM [5] was 76%. The remaining binding at 1 µM [6] was 100%, the remaining binding at 1 µM [7] was 50% and the remaining binding at 1 µM [8] was 98%. The remaining binding at 1 µM [9] was 100%, the remaining binding at 1 µM [10] was 100% and the remaining binding at 1 µM [11] was 88%.
Work on `CC1(Nc2nc(Nc3cnn([C@H]4CCN(C5COC5)C[C@@H]4F)c3Cl)nc3[nH]cc(C#N)c23)CC1` [Example 52, 2-((5-chloro-1-((3S,4S)-3-fluoro-1-(oxetane-3-yl)piperidine-4-yl)-1H-pyrazole-4-yl)amino)((1-methylcyclopropyl)amino)-7H-pyrrolo[2,3-d]pyrimidine-5-carbonitrile] yielded a remaining binding at 1 µM ([1]; ABL1(H396P)-nonphosphorylated) of 0.55%, a remaining binding at 1 µM ([1]; ABL1(H396P)-phosphorylated) of 0.9% and a remaining binding at 1 µM [2] of 8.6%. It also gave a remaining binding at 1 µM [3] of 36%, a remaining binding at 1 µM [4] of 28% and a remaining binding at 1 µM [5] of 88%. It also gave a remaining binding at 1 µM [6] of 10%, a remaining binding at 1 µM [7] of 6.4% and a remaining binding at 1 µM [8] of 49%. The remaining binding at 1 µM [9] was 81%, the remaining binding at 1 µM [10] was 0.6% and the remaining binding at 1 µM [11] was 2.5%.
For `CCNc1nc(Nc2ccc(C(=O)N3CCC(N4CCOCC4)CC3)cc2OC)nc2[nH]cc(C(F)(F)F)c12` [Example 104, (4-((4-(ethylamino)-5-(trifluoromethyl)-7H-pyrrolo[2,3-d]pyrimidine-2-yl)amino)-3-methoxyphenyl)(4-morpholinopiperidine-1-yl)methanone], the remaining binding at 1 µM ([1]; ABL1(H396P)-nonphosphorylated) was 96%, the remaining binding at 1 µM ([1]; ABL1(H396P)-phosphorylated) was 74% and the remaining binding at 1 µM [2] was 81%. For the same molecule, the remaining binding at 1 µM [3] was 100%, the remaining binding at 1 µM [4] was 83% and the remaining binding at 1 µM [5] was 82%. For the same molecule, the remaining binding at 1 µM [6] was 100%, the remaining binding at 1 µM [7] was 91% and the remaining binding at 1 µM [8] was 73%. The remaining binding at 1 µM [9] was 83%, the remaining binding at 1 µM [10] was 97% and the remaining binding at 1 µM [11] was 99%.
